{
  "source": "patent EP2792354A2",
  "about": "“COMPOSITION OF […] ACUTE AND CHRONIC HEPATIC ENCE[…] METHOD FOR TREATING ACUTE AND CHRONIC HEPATIC ENCEPHALOPATHY” (Obshchestvo S Ogranichennoj Otvetstvennostju …, priority 2011, dated 2012)",
  "key": {"[1]": {"tested_on": "acute HE, induced by ammonia injection in mice", "experiment": "CCl4 pretreatment 24 hours before lethal dose of NH4Cl (preconditioning), animal survival", "type": "in vivo", "conditions": "CCl4 2 ml/kg wt 24 hours before NH4Cl LD100+; NaCl instead of protector", "method": "Table 1. […] Introduction of various doses of NH4 (12-14 mmol / kg) at 24 hours after administration of these toxins, can cause the development of acute HE and death of most or all animals. However, this effect depends on the dose used toxins CCl4. It can be seen that low doses of CCl4 (2ml/kg), being administered to intact animals , results in almost total protection against the lethal dose of NH4, resulting in the survival of 80 % of treated animals, i.e. there is the effect of preconditioning."}, "[2]": {"conditions": "type 2 diabetes (D2) mice, CCl4, injections 3 days; alive animals", "protocol": "In the experiments, male albino mice weighing 20 - 35 g after 12 hours of fasting. • 1. […] The recommended classification of the stages of HE for laboratory animals was used (116). • 2.1 The models of acute liver failure , resulting in necrosis and fatty degeneration of the liver cells due to oxidative stress , by introducing :CCl4 (2 - 4ml/kg subcutaneously or i.p.); acetaminophen-AAF (300 - 500mg/kg i.p.) or thioacetamide (TAA , 300 - 500mg / kg i.p.), in accordance with known data (103,104,116-118). […] Control the level of glucose, insulin , ALT , bilirubin, glycerol, triglycerides and fatty acids in the blood and in the liver, histological examination of the liver was carried out. • 2.2.2 The model of type 2 diabetes, according to the data of (115), in which after 1 - 2 months of feeding fat, animals were injected i.p. 50mg/kg of streptozotocin (to suppress the activity of β-cells) and then 15 days later , after controlling for the main indicators of the blood ,were used in the experiments.\nThe comparison of the efficacy of compositions ∑3 and LoLa on the alive diabetic animals treated with CCL4 and protectors used (according to pp.4-6 of Tab.2)"}},
  "data": [
    {"compound": "ClC(Cl)(Cl)Cl", "note": "[CCl4]", "values": [
      {"measurement": "% survival", "setting": "[1]", "value": 80, "unit": "%"}
    ]},
    {"compound": "[Cl-].[Na+]", "note": "[NaCl]", "values": [
      {"measurement": "AAT plasma", "setting": "[2]", "value": "1540±350", "unit": "U/L"},
      {"measurement": "Glucose Plasma", "setting": "[2]", "value": "13,1±0,8 mMol"},
      {"measurement": "LCFA Plasma", "setting": "[2]", "value": "1,55±0,28 mMol"}
    ]}
  ]
}
